{"source": "patent US9314510B2", "about": "“Human laminin α2 chain LG3 domain and active peptides promoting cell adhesion, spreading, migration, and neurite outgrowth” (SNU R&DB Foundation, priority 2011, dated 2016)", "key": {"PC12 cells [1]": {"tested_on": "PC12 cells", "experiment": "Effect of Rho-kinase inhibitor on stress fibers", "format": "cell-based, rat", "settings": "cells seeded 1 h, then 10 μM for 2 h", "protocol": "PC12 cells were seeded on glass slide chambers coated with laminin, rLG3, or Ln2-LG3-P2 for 1 h. The cells were treated with […] Y27632, a selective inhibitor of Rho-associated protein kinase, for 2 h in serum-free medium and immunostained with rhodamine-phalloidin."}, "PC12 cells [2]": {"tested_on": "PC12 cells", "experiment": "Cell viability with PKC inhibitors", "settings": "at the concentrations used and duration of treatment"}, "fibroblasts": {"tested_on": "fibroblasts", "settings": "1-3 μM; cited from earlier work"}, "PKCδ": {"target": "PKCδ (Homo sapiens, UniProt Q05655)", "sequence (Q05655 whole entry)": "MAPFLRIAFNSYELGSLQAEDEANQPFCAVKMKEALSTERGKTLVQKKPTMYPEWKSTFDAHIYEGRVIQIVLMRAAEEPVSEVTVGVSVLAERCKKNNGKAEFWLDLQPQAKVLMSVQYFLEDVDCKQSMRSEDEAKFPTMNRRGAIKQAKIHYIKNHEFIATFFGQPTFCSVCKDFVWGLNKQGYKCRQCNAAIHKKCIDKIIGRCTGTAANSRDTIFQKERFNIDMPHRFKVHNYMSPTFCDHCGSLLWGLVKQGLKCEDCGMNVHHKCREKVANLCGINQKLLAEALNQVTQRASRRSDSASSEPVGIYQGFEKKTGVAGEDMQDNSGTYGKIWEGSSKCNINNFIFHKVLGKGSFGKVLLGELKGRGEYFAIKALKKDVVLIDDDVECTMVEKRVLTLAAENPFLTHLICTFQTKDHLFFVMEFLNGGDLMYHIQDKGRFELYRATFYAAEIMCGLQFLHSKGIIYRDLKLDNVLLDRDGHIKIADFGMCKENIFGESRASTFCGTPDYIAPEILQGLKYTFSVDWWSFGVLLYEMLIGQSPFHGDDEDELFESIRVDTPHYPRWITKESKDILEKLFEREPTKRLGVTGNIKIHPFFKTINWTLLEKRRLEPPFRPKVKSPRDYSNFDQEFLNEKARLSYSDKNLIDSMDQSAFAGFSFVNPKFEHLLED", "settings": "PKCδ inhibitor; cited from earlier work"}, "FAK Tyr-397": {"tested_on": "FAK Tyr-397", "experiment": "Effect of PKC inhibitors on FAK phosphorylation at Tyr-397", "format": "cell-based, rat", "settings": "PC12 cells pretreated with 5 nM Gö6976 or 5 μM rottlerin 15 min, laminin, rLG3, Ln2-LG3-P2 plates", "protocol": "PC12 cells were pretreated with 5 nM Gö6976 or 5 μM rottlerin for 15 min at 37° C. and seeded on laminin-, rLG3-, or Ln2-LG3-P2-coated plates for 15 min in serum-free medium."}, "PC12 cells [3]": {"tested_on": "PC12 cells", "experiment": "Effect of rottlerin on stress fibers of already spread cells", "format": "cell-based, rat", "settings": "2.5 h incubation, then 5 μM for 30 min", "protocol": "PC12 cells were seeded on glass slide chambers coated with laminin, rLG3, or Ln2-LG3-P2. After 2.5 h incubation, the cells were treated with 5 μM rottlerin for 30 min and immunostained with rhodamine-phalloidin."}, "PC12 cells [4]": {"tested_on": "PC12 cells", "experiment": "Effect of PKC inhibitor pretreatment on cell adhesion, spreading, migration and stress fiber formation", "format": "cell-based, rat", "settings": "Gö6976 2.5 or 5.0 nM, rottlerin 1 or 5 μM, 15 min", "protocol": "PC12 cells were pretreated with Gö6976 or rottlerin for 15 min at 37° C. and seeded on laminin-, rLG3-, or Ln2-LG3-P2-coated plates and then, cell adhesion, spreading, migration, and stress fiber formation were observed. To observe cell adhesion, the pretreated PC12 cells were incubated for 1 h and to observe cell spreading and stress fiber formation, the pretreated PC12 cells were incubated on the coated plates for 3 h. In addition, to observe cell migration, the pretreated PC12 cells were incubated on the coated plates for 24 h."}, "PKCα/β": {"tested_on": "PKCα/β", "settings": "PKCα/β inhibitor; cited from earlier work"}, "PC12 cells [5]": {"tested_on": "PC12 cells", "settings": "cited from earlier work"}, "PC12 cells [6]": {"tested_on": "PC12 cells", "experiment": "Effect of PLC inhibitor on cell adhesion and spreading", "format": "cell-based, rat", "settings": "0.5 or 1.0 μM"}}, "data": [{"smiles": "C[C@@H](N)[C@H]1CC[C@H](C(=O)Nc2ccncc2)CC1", "note": "[Y27632]", "values": [{"measurement": "stress fibers of PC12 cells to laminin, rLG3, and Ln2-LG3-P2", "setting": "PC12 cells [1]", "result": "completely disassembled stress fibers"}]}, {"smiles": "CC(=O)c1c(O)c(C)c(O)c(Cc2c(O)c3c(c(C(=O)/C=C/c4ccccc4)c2O)OC(C)(C)C=C3)c1O", "note": "[rottlerin]", "values": [{"measurement": "cell viability", "setting": "PC12 cells [2]", "result": "did not affect cell viability"}, {"measurement": "stress fiber formation of fibroblasts pre-spread on fibronectin", "setting": "fibroblasts", "result": "does not impair stress fiber formation"}, {"measurement": "IC50", "setting": "PKCδ", "result": "3 to 6", "unit": "µM"}, {"measurement": "level of FAK phosphorylation at Tyr-397", "setting": "FAK Tyr-397", "result": "reduced"}, {"measurement": "stress fiber formation of PC12 cells already spread on laminin, rLG3, and Ln2-LG3-P2", "setting": "PC12 cells [3]", "result": "did not interfere with stress fiber formation"}, {"measurement": "adhesion of PC12 cells to laminin, rLG3, and Ln2-LG3-P2 after inhibitor pretreatment", "setting": "PC12 cells [4]; 1 h", "result": "significantly impaired"}, {"measurement": "spreading of PC12 cells to laminin, rLG3, and Ln2-LG3-P2 after inhibitor pretreatment", "setting": "PC12 cells [4]; 3 h", "result": "significantly impaired"}, {"measurement": "stress fiber formation of PC12 cells to laminin, rLG3, and Ln2-LG3-P2 after inhibitor pretreatment", "setting": "PC12 cells [4]; 3 h", "result": "significantly impaired"}, {"measurement": "migration of PC12 cells to laminin, rLG3, and Ln2-LG3-P2 after inhibitor pretreatment", "setting": "PC12 cells [4]; 24 h", "result": "significantly impaired"}]}, {"smiles": "Cn1c2ccccc2c2c3c(c4c5ccccc5n(CCC#N)c4c21)CNC3=O", "note": "[Gö6976]", "values": [{"measurement": "cell viability", "setting": "PC12 cells [2]", "result": "did not affect cell viability"}, {"measurement": "level of FAK phosphorylation at Tyr-397", "setting": "FAK Tyr-397", "result": "did not affect"}, {"measurement": "spreading of PC12 cells to laminin, rLG3, and Ln2-LG3-P2 after inhibitor pretreatment", "setting": "PC12 cells [4]; 3 h", "result": "not with Gö6976 significantly impaired"}, {"measurement": "IC50", "setting": "PKCα/β", "result": 0.0023, "unit": "µM"}]}, {"smiles": "COc1ccc2c(c1)CC[C@@H]1[C@@H]2CC[C@]2(C)[C@@H](NCCCCCCN3C(=O)C=CC3=O)CC[C@@H]12", "note": "[U73122]", "values": [{"measurement": "α1β1 integrin-mediated PC12 cell adhesion", "setting": "PC12 cells [5]", "result": "reduced"}, {"measurement": "cell adhesion to rLG3 and Ln2-LG3-P2 after inhibitor pretreatment", "setting": "PC12 cells [6]; 15 min, 1 h", "result": "reduced by U73122 in a dose-dependent manner"}, {"measurement": "cell spreading to rLG3 and Ln2-LG3-P2 after inhibitor pretreatment", "setting": "PC12 cells [6]; 15 min, 3 h", "result": "reduced"}, {"measurement": "cell adhesion (as printed in legend of FIG. 15B)", "setting": "PC12 cells [6]; rLG3 and Ln2-LG3-P2 plates, 3 h", "result": "reduced by U73122 in a dose-dependent manner"}]}]}
